# Legend:
# Enterococcus faecalis = test: Antibacterial activity against Enterococcus faecalis; assay type: functional
# Enterococcus faecium = test: Antibacterial activity against Enterococcus faecium; assay type: functional
# Staphylococcus aureus = test: Antibacterial activity against Staphylococcus aureus; assay type: functional
# Escherichia coli [1] = test: Antibacterial activity against Escherichia coli infected in microbiologically evaluable patient with UTI assessed as cure rate at 500 mg, iv administered every 8 hrs for 10 days measured at test-of-cure visit; assay type: functional
# Escherichia coli [2] = test: Antibacterial activity against levofloxacin-resistant Escherichia coli infected in microbiologically evaluable patient with UTI assessed as cure rate at 500 mg, iv administered every 8 hrs for 10 days measured at test-of-cure visit; assay type: functional
# Escherichia coli [3] = test: Antibacterial activity against levofloxacin-resistant Escherichia coli infected in clinically evaluable patient with UTI assessed as cure rate at 500 mg, iv administered every 8 hrs for 10 days measured at test-of-cure visit; assay type: functional
# Klebsiella pneumoniae = test: Antibacterial activity against Klebsiella pneumoniae infected in microbiologically evaluable patient with UTI assessed as cure rate at 500 mg, iv administered every 8 hrs for 10 days measured at test-of-cure visit; assay type: functional
# Proteus mirabilis = test: Antibacterial activity against Proteus mirabilis infected in microbiologically evaluable patient with UTI assessed as cure rate at 500 mg, iv administered every 8 hrs for 10 days measured at test-of-cure visit; assay type: functional
# Escherichia coli [4] = test: Antibacterial activity against Escherichia coli isolated from patient with urinary tract infection receiving drug at 500 mg, iv administered every 8 hrs for 10 days measured after post drug therapy; assay type: functional; conditions: Urine
# Serratia marcescens = test: Antibacterial activity against Serratia marcescens isolated from patient with urinary tract infection receiving drug at 500 mg, iv administered every 8 hrs for 10 days measured after post drug therapy; assay type: functional; conditions: Urine
# Enterococcus avium = test: Antibacterial activity against doripenem-resistant Enterococcus avium; assay type: functional
# Homo sapiens [5] = test: Treatment emergent adverse event in intent-to-treat patient with complicated urinary tract infection assessed as headache at 500 […], iv administered every 8 hrs for 10 days; assay type: ADME, organism-based, Urine; set-up: route intravenous; conditions: in vivo
# Homo sapiens [6] = test: Treatment emergent adverse event in intent-to-treat patient with complicated urinary tract infection assessed as constipation at 500 […], iv administered every 8 hrs for 10 days; assay type: ADME, organism-based; set-up: route intravenous; conditions: in vivo
# Homo sapiens [7] = test: Treatment emergent adverse event in intent-to-treat patient with complicated urinary tract infection assessed as diarrhea at 500 […], iv administered every 8 hrs for 10 days; assay type: ADME, organism-based; set-up: route intravenous; conditions: in vivo
# Homo sapiens [8] = test: Treatment emergent adverse event in intent-to-treat patient with complicated urinary tract infection assessed as vomiting at 500 […], iv administered every 8 hrs for 10 days; assay type: organism-based; set-up: route intravenous; conditions: in vivo
# Homo sapiens [9] = test: Treatment emergent adverse event in intent-to-treat patient with complicated urinary tract infection assessed as upper abdominal pain at 500 […], iv administered every 8 hrs for 10 days; assay type: organism-based; set-up: route intravenous; conditions: in vivo
# Homo sapiens [10] = test: Treatment emergent adverse event in intent-to-treat patient with complicated urinary tract infection assessed as nausea at 500 […], iv administered every 8 hrs for 10 days; assay type: organism-based; set-up: route intravenous; conditions: in vivo
# Homo sapiens [11] = test: Treatment emergent adverse event in intent-to-treat patient with complicated urinary tract infection assessed as phlebitis at 500 […], iv administered every 8 hrs for 10 days; assay type: organism-based; set-up: route intravenous; conditions: in vivo
# Homo sapiens [12] = test: Treatment emergent adverse event in intent-to-treat patient with complicated urinary tract infection assessed as insomnia at 500 […], iv administered every 8 hrs for 10 days; assay type: ADME, organism-based, Urine; set-up: route intravenous; conditions: in vivo
# Homo sapiens [13] = test: Treatment emergent adverse event in intent-to-treat patient with complicated urinary tract infection assessed as urinary tract infection at 500 […], iv administered every 8 hrs for 10 days; assay type: ADME, organism-based, Urine; set-up: route intravenous; conditions: in vivo
# Homo sapiens [14] = test: Treatment emergent adverse event in intent-to-treat patient with complicated urinary tract infection assessed as asymptomatic bacteriuria at 500 […], iv administered every 8 hrs for 10 days; assay type: ADME, organism-based, Urine; set-up: route intravenous; conditions: in vivo
# Homo sapiens [15] = test: Treatment emergent adverse event in intent-to-treat patient with complicated urinary tract infection assessed as back pain at 500 […], iv administered every 8 hrs for 10 days; assay type: organism-based; set-up: route intravenous; conditions: in vivo
# Homo sapiens [16] = test: Treatment emergent adverse event in intent-to-treat patient with complicated urinary tract infection assessed as hypokalemia at 500 […], iv administered every 8 hrs for 10 days; assay type: ADME, organism-based, Urine; set-up: route intravenous; conditions: in vivo
# Homo sapiens [17] = test: Treatment emergent adverse event in intent-to-treat patient with complicated urinary tract infection assessed as abdominal pain at 500 […], iv administered every 8 hrs for 10 days; assay type: ADME, organism-based, Urine; set-up: route intravenous; conditions: in vivo
# Homo sapiens [18] = test: Treatment emergent adverse event in intent-to-treat patient with complicated urinary tract infection assessed as >=1 adverse event at 500 mg/kg, iv administered every 8 hrs for 10 days; assay type: organism-based, Urine; set-up: dose 500 mg/kg, route intravenous; conditions: in vivo
# Homo sapiens [19] = test: Drug related treatment emergent adverse event in intent-to-treat patient with complicated urinary tract infection assessed as >=1 adverse event at 500 mg/kg, iv administered every 8 hrs for 10 days; assay type: toxicity, organism-based, Urine; set-up: dose 500 mg/kg, route intravenous; conditions: in vivo
# Homo sapiens [20] = test: Drug related treatment emergent adverse event in intent-to-treat patient with complicated urinary tract infection assessed as headache at 500 […], iv administered every 8 hrs for 10 days; assay type: toxicity, organism-based, Urine; set-up: dose 500 […], route intravenous; conditions: in vivo
# Homo sapiens [21] = test: Drug related treatment emergent adverse event in intent-to-treat patient with complicated urinary tract infection assessed as diarrhea at 500 […], iv administered every 8 hrs for 10 days; assay type: toxicity, organism-based; set-up: dose 500 […], route intravenous; conditions: in vivo
# Homo sapiens [22] = test: Drug related treatment emergent adverse event in intent-to-treat patient with complicated urinary tract infection assessed as upper abdominal pain at 500 […], iv administered every 8 hrs for 10 days; assay type: toxicity, organism-based; set-up: dose 500 […], route intravenous; conditions: in vivo
# Homo sapiens [23] = test: Drug related treatment emergent adverse event in intent-to-treat patient with complicated urinary tract infection assessed as nausea at 500 […], iv administered every 8 hrs for 10 days; assay type: toxicity, organism-based; set-up: dose 500 […], route intravenous; conditions: in vivo
# Homo sapiens [24] = test: Drug related treatment emergent adverse event in intent-to-treat patient with complicated urinary tract infection assessed as phlebitis at 500 […], iv administered every 8 hrs for 10 days; assay type: toxicity, organism-based, Urine; set-up: dose 500 […], route intravenous; conditions: in vivo
smiles,measurement,setting,value
C[C@@H](O)[C@H]1C(=O)N2C(C(=O)O)=C(S[C@@H]3CN[C@H](CNS(N)(=O)=O)C3)[C@H](C)[C@H]12 [DORIPENEM],MIC,Enterococcus faecalis,≥ 16 µg/mL
same,MIC,Enterococcus faecium,≥ 16 µg/mL
same,MIC,Staphylococcus aureus,≥ 16 µg/mL
same,Activity,Escherichia coli [1],84.4%
same,Activity,Escherichia coli [2],55%
same,Activity,Escherichia coli [3],86%
same,Activity,Klebsiella pneumoniae,83.3%
same,Activity,Proteus mirabilis,69.6%
same,MIC,Escherichia coli [4],0.06 µg/mL
same,MIC,Serratia marcescens,0.5 µg/mL
same,MIC,Enterococcus avium,128 µg/mL
same,Activity,Homo sapiens [5],15.7%
same,Activity,Homo sapiens [6],5.9%
same,Activity,Homo sapiens [7],5.6%
same,Activity,Homo sapiens [8],5.1%
same,Activity,Homo sapiens [9],4.5%
same,Activity,Homo sapiens [10],4.3%
same,Activity,Homo sapiens [11],3.7%
same,Activity,Homo sapiens [12],3.7%
same,Activity,Homo sapiens [13],3.7%
same,Activity,Homo sapiens [14],3.7%
same,Activity,Homo sapiens [15],2.1%
same,Activity,Homo sapiens [16],2.1%
same,Activity,Homo sapiens [17],1.9%
same,Activity,Homo sapiens [18],64%
same,Activity,Homo sapiens [19],28.2%
same,Activity,Homo sapiens [20],4.5%
same,Activity,Homo sapiens [21],4%
same,Activity,Homo sapiens [22],0.5%
same,Activity,Homo sapiens [23],2.9%
same,Activity,Homo sapiens [24],2.4%

# Source: ChEMBL document CHEMBL1687743, “Intravenous doripenem at 500 milligrams versus levofloxacin at 250 milligrams, with an option to switch to oral therapy, for treatment of complicated lower urinary tract infection and pyelonephritis” (Antimicrob Agents Chemother, 2009)
